Reference: patent US10947188B2, “Small molecule ferroptosis inducers” (THE TRUSTEES OF COLUMBIA UNIVERSITY IN THE CITY OF NEW YORK, priority 2016, dated 2021)

Test system: HT-1080
Assay: Modulatory profiling: Alamar Blue viability, lethal compound cotreated with death modulator (EC50, AUC)
Assay type: cell-based
Set-up: AUC, modulator HT.3MA / AUC, modulator HT.ALLN / AUC HT.ATA / AUC HT.ActD / AUC HT.BHA / AUC HT.BHT / AUC HT.BocD / AUC HT.CHX / AUC HT.Co2+ / AUC HT.DPQ / AUC HT.EGTA / AUC HT.Lmim / AUC HT.NAD+ / AUC HT.Nec-1 / AUC HT.SP600125 / AUC HT.TLCK / AUC HT.U0126: unit not given beside the values
Settings: for AUC HT.ATA: HT-1080, modulator ATA; for AUC HT.ActD: HT-1080, modulator ActD; for AUC HT.BHA: HT-1080, modulator BHA; for AUC HT.BHT: HT-1080, modulator BHT; for AUC HT.BocD: HT-1080, modulator BocD; for AUC HT.CHX: HT-1080, modulator CHX; for AUC HT.Co2+: HT-1080, modulator Co2+; for AUC HT.CspA: HT-1080, modulator CspA; for AUC HT.DPQ: HT-1080, modulator DPQ; for AUC HT.EGTA: HT-1080, modulator EGTA; for AUC HT.Gd3+: HT-1080, modulator Gd3+; for AUC HT.LNAME: HT-1080, modulator LNAME; for AUC HT.Lmim: HT-1080, modulator Lmim; for AUC HT.NAD+: HT-1080, modulator NAD+; for AUC HT.NMMA: HT-1080, modulator NMMA; for HT.atoc (AUC) / HT.bCarotene (AUC) / HT.deferox (AUC) / HT.digoxin (AUC) / HT.trolox (AUC) / HT.zVAD (AUC): HT-1080; for HT.atoc (AUC): modulator atoc; for HT.bCarotene (AUC): modulator bCarotene; for HT.deferox (AUC): modulator deferox; for HT.digoxin (AUC): modulator digoxin; for HT.trolox (AUC): modulator trolox; for HT.zVAD (AUC): modulator zVAD; for AUC, modulator HT.3MA / AUC, modulator HT.ALLN: HT-1080 cells, modulatory profile value (AUC); for AUC, modulator HT.3MA: lethal compound cotreated with modulator 3MA; for AUC, modulator HT.ALLN: lethal compound cotreated with modulator ALLN

Q: How did the “AUC HT.ATA” value turn out when `CCCCNc1cc(C)nc(NCc2ccccc2)n1` [CIL18] was run?
A: The value was 0.001415.

Q: What about the “AUC HT.ActD” value of the same compound?
A: Its value is 0.0184.

Q: And the “AUC HT.BHA” value?
A: Its value is −0.08703.

Q: And the “AUC HT.BHT” value?
A: The value was −0.1394.

Q: What about the “AUC HT.BocD” value of the same compound?
A: The value was 0.06607.

Q: And the “AUC HT.CHX” value?
A: Its value is 0.1179.

Q: What about the “AUC HT.Co2+” value of the same compound?
A: Its value is 0.1598.

Q: What about the “AUC HT.CspA” value of the same compound?
A: Its value is −0.04827.

Q: What about the “AUC HT.DPQ” value of the same compound?
A: Its value is −0.01276.

Q: And the “AUC HT.EGTA” value?
A: The value was −0.009461.

Q: What about the “AUC HT.Gd3+” value of the same compound?
A: The value was −0.03302.

Q: And the “AUC HT.LNAME” value?
A: The value was 0.01329.

Q: And the “AUC HT.Lmim” value?
A: Its value is −0.004987.

Q: And the “AUC HT.NAD+” value?
A: The value was 0.09493.

Q: What about the “AUC HT.NMMA” value of the same compound?
A: The value was −0.02918.

Q: And the “HT.atoc (AUC)” value?
A: Its value is 0.1295.

Q: And the “HT.bCarotene (AUC)” value?
A: The value was −0.0001406.

Q: And the “HT.deferox (AUC)” value?
A: Its value is −0.009951.

Q: And the “HT.digoxin (AUC)” value?
A: The value was −0.004198.

Q: And the “HT.trolox (AUC)” value?
A: The value was −0.01205.

Q: And the “HT.zVAD (AUC)” value?
A: The value was 0.0101.

Q: And the “AUC, modulator HT.3MA” value?
A: Its value is 0.01461.

Q: What about the “AUC, modulator HT.ALLN” value of the same compound?
A: Its value is 0.07303.

Q: How did the “AUC HT.ATA” value turn out when `COc1cccc(-n2nnnc2S(C)(=O)=O)c1` [CIL16] was run?
A: The value was 0.003965.

Q: And the “AUC HT.ActD” value?
A: Its value is 0.01875.

Q: What about the “AUC HT.BHA” value of the same compound?
A: The value was −0.05937.

Q: And the “AUC HT.BHT” value?
A: The value was −0.1721.

Q: And the “AUC HT.BocD” value?
A: The value was 0.1414.

Q: And the “AUC HT.CHX” value?
A: The value was 0.08543.

Q: And the “AUC HT.Co2+” value?
A: Its value is 0.155.

Q: What about the “AUC HT.CspA” value of the same compound?
A: Its value is 0.008389.

Q: And the “AUC HT.DPQ” value?
A: The value was −0.02205.

Q: And the “AUC HT.EGTA” value?
A: The value was −0.0002723.

Q: What about the “AUC HT.Gd3+” value of the same compound?
A: Its value is −0.0407.

Q: What about the “AUC HT.LNAME” value of the same compound?
A: Its value is 0.01974.

Q: What about the “AUC HT.Lmim” value of the same compound?
A: Its value is −0.05546.

Q: What about the “AUC HT.NAD+” value of the same compound?
A: Its value is 0.05126.

Q: And the “AUC HT.NMMA” value?
A: Its value is −0.03154.

Q: What about the “HT.atoc (AUC)” value of the same compound?
A: Its value is 0.1025.

Q: What about the “HT.bCarotene (AUC)” value of the same compound?
A: The value was −0.01322.

Q: And the “HT.deferox (AUC)” value?
A: The value was 0.05919.

Q: And the “HT.digoxin (AUC)” value?
A: Its value is −0.01884.

Q: And the “HT.trolox (AUC)” value?
A: Its value is −0.01524.

Q: What about the “HT.zVAD (AUC)” value of the same compound?
A: Its value is 0.005482.

Q: And the “AUC, modulator HT.3MA” value?
A: The value was 0.02993.

Q: And the “AUC, modulator HT.ALLN” value?
A: The value was −0.03286.

Q: For `COc1nn(-c2ccccc2)c(=O)c(Cl)c1Cl` [CIL23], which “AUC HT.ATA” value is on record?
A: The value was 0.01792.

Q: And the “AUC HT.ActD” value?
A: Its value is 0.01969.

Q: What about the “AUC HT.BHA” value of the same compound?
A: The value was 0.00702.

Q: And the “AUC HT.BHT” value?
A: The value was −0.02762.

Q: And the “AUC HT.BocD” value?
A: Its value is −0.01259.

Q: And the “AUC HT.CHX” value?
A: Its value is 0.08773.

Q: And the “AUC HT.Co2+” value?
A: Its value is 0.03316.

Q: And the “AUC HT.CspA” value?
A: The value was −0.02326.

Q: And the “AUC HT.DPQ” value?
A: Its value is 0.01052.

Q: And the “AUC HT.EGTA” value?
A: Its value is −0.01323.

Q: And the “AUC HT.Gd3+” value?
A: Its value is −0.000221.

Q: What about the “AUC HT.LNAME” value of the same compound?
A: Its value is 0.005628.

Q: And the “AUC HT.Lmim” value?
A: Its value is 0.01608.

Q: And the “AUC HT.NAD+” value?
A: Its value is −0.0002222.

Q: And the “AUC HT.NMMA” value?
A: The value was −0.001084.

Q: What about the “HT.atoc (AUC)” value of the same compound?
A: The value was 0.03663.

Q: What about the “HT.bCarotene (AUC)” value of the same compound?
A: The value was −0.001122.

Q: What about the “HT.deferox (AUC)” value of the same compound?
A: The value was 0.1512.

Q: What about the “HT.digoxin (AUC)” value of the same compound?
A: Its value is 0.03673.

Q: And the “HT.trolox (AUC)” value?
A: Its value is 0.004402.

Q: And the “HT.zVAD (AUC)” value?
A: Its value is 0.02043.

Q: What about the “AUC, modulator HT.3MA” value of the same compound?
A: The value was 0.01609.

Q: What about the “AUC, modulator HT.ALLN” value of the same compound?
A: Its value is 0.001521.

Q: Which “AUC HT.ATA” value does the source give for `COc1cccc2c1C(=O)c1c(O)c3c(c(O)c1C2=O)C[C@@](O)(C(=O)CO)C[C@@H]3O[C@H]1C[C@H](N)[C@H](O)[C@H](C)O1` [Doxorubicin] here?
A: Its value is 0.02841.

Q: What about the “AUC HT.ActD” value of the same compound?
A: The value was 0.007993.

Q: What about the “AUC HT.BHA” value of the same compound?
A: The value was 0.02167.

Q: And the “AUC HT.BHT” value?
A: The value was −0.06815.

Q: And the “AUC HT.BocD” value?
A: Its value is 0.05959.

Q: What about the “AUC HT.CHX” value of the same compound?
A: The value was 0.08993.

Q: What about the “AUC HT.Co2+” value of the same compound?
A: Its value is 0.2627.

Q: And the “AUC HT.CspA” value?
A: The value was −0.1098.

Q: And the “AUC HT.DPQ” value?
A: Its value is 0.01107.

Q: What about the “AUC HT.EGTA” value of the same compound?
A: Its value is 0.03492.

Q: What about the “AUC HT.Gd3+” value of the same compound?
A: The value was 0.03741.

Q: What about the “AUC HT.LNAME” value of the same compound?
A: The value was 0.006685.

Q: And the “AUC HT.Lmim” value?
A: The value was 0.08822.

Q: What about the “AUC HT.NAD+” value of the same compound?
A: The value was 0.1872.

Q: And the “AUC HT.NMMA” value?
A: The value was 0.02832.

Q: What about the “AUC HT.Nec-1” value (HT-1080, modulator Nec-1) of the same compound?
A: The value was 0.007577.

Q: What about the “AUC HT.Pepstatin” value (HT-1080, modulator Pepstatin) of the same compound?
A: The value was 0.008958.

Q: And the “AUC HT.SP600125” value (HT-1080, modulator SP600125)?
A: Its value is −0.02148.

Q: What about the “AUC HT.TLCK” value (HT-1080, modulator TLCK) of the same compound?
A: Its value is 0.0633.

Q: What about the “AUC HT.U0126” value (HT-1080, modulator U0126) of the same compound?
A: The value was −0.02036.

Q: What about the “HT.atoc (AUC)” value of the same compound?
A: Its value is 0.00993.

Q: What about the “HT.bCarotene (AUC)” value of the same compound?
A: Its value is 0.01512.

Q: What about the “HT.deferox (AUC)” value of the same compound?
A: The value was 0.2044.

Q: What about the “HT.digoxin (AUC)” value of the same compound?
A: Its value is 0.1981.

Q: And the “HT.trolox (AUC)” value?
A: The value was −0.01413.

Q: And the “HT.zVAD (AUC)” value?
A: Its value is 0.05138.

Q: What about the “AUC, modulator HT.3MA” value of the same compound?
A: Its value is 0.03088.

Q: And the “AUC, modulator HT.ALLN” value?
A: Its value is 0.03102.
